According to patent publication US7098007B2, “Cloning and functional assays of Xenopus ATR” (California Institute of Technology, priority 2001, dated 2006):
Entries after “also recorded” stand apart in the source; their conditions may differ.

Key:
Xchk1 = assay: Phosphorylation of Xchk1 in Xenopus egg extracts; assay type: biochemical
Protocol: To address this question, we first measured phosphorylation of Xchk1 in egg extracts undergoing a checkpoint delay in response to a block to DNA replication. […] Briefly, ^35S-labeled wildtype or mutant Xchk1 (T314A, S344A, T314A+S344A, S356A, S365A, S356A+S365A, 4AQ) protein was incubated with egg extracts in the presence or absence of aphidicolin. ^35S labeled proteins were isolated and analyzed by gel electrophoresis for a phosphorylation-dependent shift in mobility.
Using the S344-p antibodies, we examined in more detail the phosphorylation of Xchk1 expressed in egg extracts. […] Following the incubation, the recombinant proteins were reisolated with glutathione agarose and detected by immunoblot with anti-GST antibodies and anti-S344-p antibodies.
Following 90 minute incubation, the preparation was diluted in 400 μL of dilution buffer (10 mM HEPES at pH 7.5, 150 mM NaCl, 20 mM β-glycerolphosphate, 2.5 mM EGTA, and 0.1% CHAPS). Recombinant Xchk1 proteins were isolated with glutathione agarose, washed, eluted, subjected to SDS-PAGE, and immunoblotted with either anti-GST antibodies (Santa Cruz Biotechnology) or anti-S344-p antibodies.

Xatr [1] = target: T1, Xatr (Xenopus laevis, UniProt Q9DE14); assay: Binding of Xatr to single-stranded and double-stranded DNA cellulose in egg cytosol; design: we examined the association of Xatr with both single and double-stranded DNA in Xenopus egg extracts; from tissue; host or cells: Xenopus interphase egg cytosol; settings: 50 μL cytosol, with or without APH
Protocol: In order to functionally characterize Xatr, we examined the association of Xatr with both single and double-stranded DNA in Xenopus egg extracts, under a variety of conditions. […] Briefly, control cellulose, single-stranded DNA cellulose, or double-stranded DNA cellulose were incubated with 50 μL of cytosol in the presence or absence of APH or PCL. Washed cellulose beads were boiled in gel loading buffer, and half of this was subjected to immunoblot analysis using an Xatr polyclonal antibody prepared in Example 1.
Preparation of DNA cellulose: M13 DNA (single-stranded DNA) was prepared according to the manufacturers instructions (Amersham). pBS plasmids (pBluescript—double stranded DNA) were prepared by a standard alkaline lysis procedure. 1 mg of M13 DNA or pBluescript DNA in 1 mL of TE buffer (10 mM Tris-HCL, 1 mM EDTA at pH 8.0) was incubated with 0.3 grams of cellulose for 5 minutes at 23° C. Following incubation, the preparation was lyophilized for 18 hours. The resulting lyophilized powder was resuspended in 20 volumes of TE, incubated at 4° C. for 24 hours, washed with TE, and frozen at −70° C. until use. Naked control cellulose was prepared under the same conditions, however, the addition of either single or double stranded DNA was omitted.
Binding of Xatr to DNA cellulose: 25–100 μL of DNA cellose was incubated with 50–500 μL of interphase egg cytosol for 40 minutes at 23° C. […]

ATR = ATR (Homo sapiens, UniProt Q13535); settings: cited from earlier work
ATM = ATM (Homo sapiens, UniProt Q13315); settings: cited from earlier work
TOR = TOR (Homo sapiens, UniProt P42345); settings: cited from earlier work
Xatr [2] = target: T1, Xatr; assay: Xatr kinase assay: phosphorylation of model substrate PHAS-I by anti-Xatr immunoprecipitates; assay type: biochemical; design: Xatr was immunoprecipitated from Xenopus egg extracts using an anti-Xatr antibody; from tissue; host or cells: Xenopus egg extracts (immunoprecipitate with anti-peptide 1617-1630 antibody); settings: 0.04, 0.2, 1 or 5 mM caffeine; anti-Xatr immunoprecipitates from egg extracts; autoradiography
Protocol: Given the conservation of the PIK-related kinase domain among ATR homologs, we characterized the kinase activity of Xatr. Xatr was immunoprecipitated from Xenopus egg extracts using an anti-Xatr antibody (as described in Example 1).
To further assess the relationship between Xatr and other PIK-related kinases, we next assessed the effects of caffeine on the kinase activity of Xatr. […] Briefly, kinase assays were performed by incubating anti-Xatr immunoprecipitates (lanes 1–5) or control immunoprecipitates (lanes 6–10) with the model substrate PHAS-I, in the presence of 0 (lanes 1 and 6), 0.04 mM (lanes 5 and 10), 0.2 mM (lanes 4 and 9), 1 mM (lanes 3 and 8) or 5 mM (lanes 2 and 7) caffeine. Proteins were subjected to SDS-PAGE and visualized by silver staining (bottom panel). Phosphorylation of PHAS-I was detected by autoradiography (middle panel).
METHODS: Polyclonal antibodies generated against an Xatr peptide ([…], SEQ ID NO: 11), as shown in Example 1, were used to immunoprecipitate Xatr. Immunoprecipitation and kinase assays were performed using standard methods, and as previously shown (Guo and Dunphy (2000) Mol. Biol Cell 11: 1535–1546).

T1 sequence (Q9DE14 whole entry Y191C/P249S/H2082P/D2362G): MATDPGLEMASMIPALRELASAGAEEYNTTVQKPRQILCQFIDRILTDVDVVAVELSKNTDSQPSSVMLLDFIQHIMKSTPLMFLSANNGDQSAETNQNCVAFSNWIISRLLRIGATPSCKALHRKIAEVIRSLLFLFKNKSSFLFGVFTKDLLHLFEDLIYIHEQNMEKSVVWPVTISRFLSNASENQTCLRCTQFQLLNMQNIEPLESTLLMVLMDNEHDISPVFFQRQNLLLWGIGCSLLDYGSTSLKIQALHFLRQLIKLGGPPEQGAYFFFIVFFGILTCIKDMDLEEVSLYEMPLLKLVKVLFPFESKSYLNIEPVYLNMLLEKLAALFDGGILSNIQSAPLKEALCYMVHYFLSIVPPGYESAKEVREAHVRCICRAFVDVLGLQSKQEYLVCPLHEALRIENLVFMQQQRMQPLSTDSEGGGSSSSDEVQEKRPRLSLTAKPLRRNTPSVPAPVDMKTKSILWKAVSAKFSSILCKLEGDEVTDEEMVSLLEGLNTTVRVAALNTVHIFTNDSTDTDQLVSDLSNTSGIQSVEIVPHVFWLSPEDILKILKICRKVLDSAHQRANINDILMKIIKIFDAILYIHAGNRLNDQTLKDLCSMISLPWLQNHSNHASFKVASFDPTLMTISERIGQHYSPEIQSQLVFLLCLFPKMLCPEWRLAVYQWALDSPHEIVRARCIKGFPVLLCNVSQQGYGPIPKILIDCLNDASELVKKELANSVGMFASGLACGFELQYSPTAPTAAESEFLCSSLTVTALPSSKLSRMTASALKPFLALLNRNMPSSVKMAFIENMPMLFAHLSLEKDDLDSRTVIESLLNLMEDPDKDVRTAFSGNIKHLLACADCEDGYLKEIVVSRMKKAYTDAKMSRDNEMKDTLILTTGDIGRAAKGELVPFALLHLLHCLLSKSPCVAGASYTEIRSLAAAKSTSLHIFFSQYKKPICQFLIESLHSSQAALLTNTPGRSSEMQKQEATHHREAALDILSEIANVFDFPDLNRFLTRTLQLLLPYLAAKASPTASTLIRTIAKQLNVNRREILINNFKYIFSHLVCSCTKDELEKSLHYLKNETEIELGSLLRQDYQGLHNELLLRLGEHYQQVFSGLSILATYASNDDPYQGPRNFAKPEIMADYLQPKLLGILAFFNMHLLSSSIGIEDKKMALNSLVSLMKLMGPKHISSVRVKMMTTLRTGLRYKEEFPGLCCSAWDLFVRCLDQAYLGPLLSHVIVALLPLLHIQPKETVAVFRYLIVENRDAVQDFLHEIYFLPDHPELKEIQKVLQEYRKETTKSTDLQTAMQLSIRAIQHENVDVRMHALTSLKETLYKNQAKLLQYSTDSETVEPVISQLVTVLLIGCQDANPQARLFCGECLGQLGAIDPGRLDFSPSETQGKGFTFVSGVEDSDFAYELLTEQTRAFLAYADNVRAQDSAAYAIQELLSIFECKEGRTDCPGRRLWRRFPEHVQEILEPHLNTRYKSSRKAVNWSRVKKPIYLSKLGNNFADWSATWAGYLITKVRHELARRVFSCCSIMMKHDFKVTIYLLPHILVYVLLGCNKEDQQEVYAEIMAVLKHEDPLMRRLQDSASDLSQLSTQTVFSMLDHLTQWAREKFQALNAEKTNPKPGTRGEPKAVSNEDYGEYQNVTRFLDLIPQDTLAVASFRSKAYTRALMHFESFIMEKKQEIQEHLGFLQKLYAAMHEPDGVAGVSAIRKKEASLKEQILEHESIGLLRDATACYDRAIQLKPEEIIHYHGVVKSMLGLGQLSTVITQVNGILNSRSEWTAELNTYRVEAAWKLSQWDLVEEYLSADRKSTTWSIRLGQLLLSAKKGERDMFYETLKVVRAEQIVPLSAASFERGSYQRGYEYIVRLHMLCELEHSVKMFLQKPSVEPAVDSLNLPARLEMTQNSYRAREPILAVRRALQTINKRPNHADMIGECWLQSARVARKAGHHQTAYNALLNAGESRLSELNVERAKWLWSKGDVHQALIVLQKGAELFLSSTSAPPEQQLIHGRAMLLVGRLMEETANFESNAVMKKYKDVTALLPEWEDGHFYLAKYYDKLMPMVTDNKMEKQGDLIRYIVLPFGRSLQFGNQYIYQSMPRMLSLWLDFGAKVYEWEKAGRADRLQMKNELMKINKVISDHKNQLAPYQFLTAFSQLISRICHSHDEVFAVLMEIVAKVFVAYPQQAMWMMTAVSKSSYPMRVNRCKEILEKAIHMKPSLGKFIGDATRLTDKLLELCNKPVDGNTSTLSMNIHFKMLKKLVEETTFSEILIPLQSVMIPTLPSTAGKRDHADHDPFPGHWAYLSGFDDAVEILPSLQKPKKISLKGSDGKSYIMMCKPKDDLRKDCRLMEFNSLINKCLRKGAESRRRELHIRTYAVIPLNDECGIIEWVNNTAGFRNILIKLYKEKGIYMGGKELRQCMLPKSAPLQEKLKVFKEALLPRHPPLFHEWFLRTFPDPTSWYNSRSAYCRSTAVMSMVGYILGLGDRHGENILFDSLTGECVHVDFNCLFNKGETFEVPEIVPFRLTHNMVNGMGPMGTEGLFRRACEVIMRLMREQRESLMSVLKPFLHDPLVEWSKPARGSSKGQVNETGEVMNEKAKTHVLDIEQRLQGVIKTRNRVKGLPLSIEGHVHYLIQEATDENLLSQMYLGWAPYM

## C[C@@]1(CO)[C@H](O)CC[C@@]2(C)[C@H]1CC[C@H]1C[C@@H]3C[C@@]12CC[C@]3(O)CO [aphidicolin]
Xchk1; 100 μg/mL aphidicolin and sperm nuclei, 90 minutes, interphase extract
  phosphorylation of wildtype Xchk1 at Ser 344 (anti-S344-p immunoblot): phosphorylated at position 344
Xchk1; 35S-labeled Xchk1 in egg extracts, presence versus absence of aphidicolin
  phosphorylation of wildtype Xchk1 (phosphorylation-dependent shift in mobility): phosphorylated
Xatr [1]
  interaction of Xatr with DNA cellulose: occurs in the presence or the absence

## Cn1c(=O)c2c(ncn2C)n(C)c1=O [caffeine]
Xchk1; egg extracts treated with aphidicolin, compared with FIG. 3D
  half-maximal dose for inhibition of Xchk1 phosphorylation, compared with inhibition of Xatr kinase activity: approximately the same half-maximal dose
Xchk1; egg extracts treated with aphidicolin, increasing concentrations of caffeine
  phosphorylation of Xchk1 in response to unreplicated DNA: inhibited
ATR
  kinase activity of ATR, sensitivity to caffeine: sensitive
ATM
  kinase activity of ATM, sensitivity to caffeine: sensitive
TOR
  kinase activity of TOR, sensitivity to caffeine: sensitive
Xatr [2]
  kinase activity of Xatr (phosphorylation of PHAS-I): significant decrease in phosphorylation of PHAS-I; also recorded: sensitive
